The text below walks through data of patent US20200399238A1, “THERAPEUTIC AURONES” (MIDDLE TENNESSEE STATE UNIVERSITY, priority 2016, published 2020).

Read-outs that look alike come from different tables or passages of the source.

Data set [1] deals with p65 (NF-κB). The data set can be described thus: Indirect immunofluorescence for NF-κB nuclear translocation, THP-1. The format is cell-based, human. To be noted: dose of 10 μM; THP-1, LPS 30 min. An excerpt: Bay 11-7082 is a compound that inhibits LPS-induced activation of IKKα/β, thereby suppressing downstream IκBα phosphorylation/degradation and p65 nuclear translocation and was used as a positive control (Catalan, Fernandez-Castillejo et al. 2012). Treated cells were fixed, permeabilized, blocked, and stained with p65 (NF-κB) primary antibody, Dylight 488 conjugated secondary antibody, and Hoechst 33342 dye, sequentially. The Hoechst and DyLight fluorophores detect changes in nuclear morphology (blue fluorescence) and NF-κB distribution (green fluorescence), respectively. Nuclear Translocation Bioapplication software on the Arrayscan VTI reader was used for image acquisition and data analysis (Thermo Fisher Scientific, Waltham, Mass., USA). For each well, at least 400 cells were automatically acquired and analyzed. The translocation index was calculated by measuring the average intensity difference of NF-κB between the identified cytoplasmic region and nuclear region.

Data set [2] relates to C. albicans (ATCC strain 90028). Nature of the data set: Antifungal microdilution broth assay (PrestoBlue), C. albicans. The data set is classed as cell-based, Candida albicans. To be noted: Candida albicans, ATCC90028, across C. albicans, C. glabrata, and C. tropicalis; read-out: IC50 values against Candida species. In short, it runs like this: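 Inoculum of 1.5×10^3 cells/mL in RPMI-MOPS (0.165 M MOPS, pH 7.0), exposed to aurones for 24 h at 35 °C. Growth read by PrestoBlue (10% final) fluorescence at ex 560/em 590 nm.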
On the technique in general: Broth dilution looks for growth in wells or tubes with falling amounts of substance.

Data set [3] concerns rat skeletal muscle cell line, L6. Nature of the data set: cells. The format is cell-based. To be noted: rat, 71.5 h.
The test system of data set [4] is C. gattii strains. The data set can be described thus: CLSI micro-dilution MIC, C. gattii strains. The format is cell-based. The settings on record: Cryptococcus gattii. As for the experimental part: (§1) The A27-M2 CLSI standard micro-dilution method was used to screen an aurone library (MTSU Department of Chemistry) for inhibition of Cryptococcus neoformans (Cn). Each aurone was screened in triplicate. […] Toxicity assays were conducted on human THP1 macrophages and L6 rat fibroblasts.
(§2) The inhibition of Cn strains and C. gattii strains by Aurone 9051 (also referred to as “Aurone X”) was characterized in different medias (including RPMI 1640 (Standard), RPMI 1640+MOPS, Asparagine media, minimal media, or yeast extract peptone dextrose (YPD) media), against other serotypes and strains, and at different cell concentrations. Synergy of the compounds with current drugs was characterized, and a growth curve experiment was conducted.

Data set [5] relates to Cryptococcus neoformans (Cn). The data set can be described thus: CLSI micro-dilution inhibition / MIC, Cryptococcus neoformans. The format is cell-based. The protocol:
C. neoformans (strain 1199s) was prepared following CLSI guidelines for the organism (CLSI, Reference Method for Broth Dilution Antifungal Susceptibility Testing of Yeasts, Approved Standard-Third. Edition, Clinical Laboratory Standards Institute, Wayne, Pa., 2008).
as §1, §2

As for `Cc1ccc(S(=O)(=O)C=CC#N)cc1` [Bay 11-7082, 3-(4-methylphenylsulfonyl)-2-propenenitrile, reference compound], the “cytoplasmic-to-nuclear translocation of p65” value in data set [1] was “blocked p65 translocation”.
As a reminder, the IC50 is the concentration at which inhibition is half-maximal. A word on the MIC: it is the smallest concentration in the dilution series that meets the test's criterion for growth inhibition. In the case of `O=C1/C(=C/c2ccccn2)Oc2ccccc21` [Aurone 9051], the IC50 in data set [2] is 10 to 18 µM. The “toxicity to L6 rat fibroblasts” value in data set [3] was above 100 µM. Moreover, the minimum inhibitory concentration (MIC) in data set [4] (read-out: MIC, C. gattii strain R265) worked out at 25 µg/mL; in data set [4] (read-out: MIC, C. gattii strain R272), 25 µg/mL; in data set [5] (10^3 cells, read-out: MIC, Cn), 25 µg/mL; in data set [5] (10^4 cells, read-out: MIC, Cn), 50 µg/mL; in data set [5] (10^5 cells, read-out: MIC, Cn), 100 µg/mL; in data set [5] (C. neoformans 24067 (lab), serotype D, RPMI + MOPS, inoculum 2 × 10^3 CFU/ml) it was 112 µM. Moreover, the MIC in data set [5] (C. neoformans B18 (clinical), serotype A, RPMI + MOPS, inoculum 2 × 10^3 CFU/ml) is 112 µM; in data set [5] (C. neoformans B45 (clinical), serotype A, RPMI + MOPS, inoculum 2 × 10^3 CFU/ml), 112 µM; in data set [5] (C. neoformans B58 (clinical), serotype A, RPMI + MOPS, inoculum 2 × 10^3 CFU/ml, read-out: MIC), 56 µM; in data set [5] (C. neoformans B3501 (lab), serotype D, RPMI + MOPS, inoculum 2 × 10^3 CFU/ml) it was 112 µM; in data set [5] (C. neoformans H99S, serotype A, Asparagine media, inoculum 2 × 10^3 CFU/ml), 112 µM; in data set [5] (C. neoformans H99S, serotype A, Minimal media, inoculum 2 × 10^3 CFU/ml), above 4480 µM. Besides, the MIC in data set [5] (C. neoformans H99S, serotype A, RPMI + MOPS, inoculum 2 × 10^3 CFU/ml) was 112 µM; in data set [5] (C. neoformans H99S, serotype A, RPMI + MOPS, inoculum 2 × 10^4 CFU/ml) it was 224 µM; in data set [5] (C. neoformans H99S, serotype A, RPMI + MOPS, inoculum 2 × 10^5 CFU/ml), 448 µM; in data set [5] (C. neoformans H99S, serotype A, YPD media, inoculum 2 × 10^3 CFU/ml), above 896 µM; in data set [5] (C. neoformans JEC21 (lab), serotype D, RPMI + MOPS, inoculum 2 × 10^3 CFU/ml) it was 112 µM; in data set [5] (in RPMI+MOPS, read-out: MIC, Cn), 12.5 µg/mL. The MIC was above 200 µg/mL in data set [5] (in YPD, read-out: MIC, Cn); 25 µg/mL in data set [5] (in asparagine media, read-out: MIC, Cn); 110 µM in data set [5] (running text b175, read-out: MIC against Cryptococcus neoformans).
